Laboratory results reported in patent publication US9175003B2, “Substituted azoanthracene derivatives and intermediates for preparation thereof” (TransTech Pharma, LLC, priority 2009, dated 2015).

target: human GLP-1 receptor (Homo sapiens (Human), UniProt P43220); conditions: read-out: Mean EC50; cAMP, HTRF detection, 30 min at 37° C., HEK-293 cells expressing cloned human GLP-1 receptor
Sequence (P43220 24-463): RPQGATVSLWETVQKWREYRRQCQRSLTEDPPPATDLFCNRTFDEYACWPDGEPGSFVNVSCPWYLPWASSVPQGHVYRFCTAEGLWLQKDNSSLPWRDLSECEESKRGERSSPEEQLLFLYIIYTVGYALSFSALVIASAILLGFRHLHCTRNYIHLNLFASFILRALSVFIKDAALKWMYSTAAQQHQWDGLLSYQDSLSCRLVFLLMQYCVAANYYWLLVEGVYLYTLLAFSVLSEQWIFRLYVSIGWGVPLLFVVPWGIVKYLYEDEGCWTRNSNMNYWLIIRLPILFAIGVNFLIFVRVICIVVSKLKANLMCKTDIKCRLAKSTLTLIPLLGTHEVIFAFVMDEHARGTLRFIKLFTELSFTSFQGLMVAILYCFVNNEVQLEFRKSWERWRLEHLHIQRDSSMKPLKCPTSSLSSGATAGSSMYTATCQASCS

Row | SMILES | EC50 [nM]
1 | Cc1nc(N)sc1S(=O)(=O)N1Cc2cc3c(cc2C[C@H]1C(=O)N[C@@H](Cc1ccc(-c2ccnc(C)c2C)cc1)C(=O)O)OC[C@H](c1ccc(OCc2ccc(Cl)c(Cl)c2)cc1)O3 [Example 411, (S)-2-({(3S,8S)-7-(2-Amino-4-methyl-thiazole-5-sulfonyl)-3-[4-(3,4-dichloro-benzyloxy)-phenyl]-2,3,6,7,8,9-hexahydro-[1,4]dioxino[2,3-g]isoquinoline-8-carbonyl}-amino)-3-[4-(2,3-dimethyl-pyridin-4-yl)-phenyl]-propionic acid] | 9
2 | Cc1nc(N)ccc1S(=O)(=O)N1Cc2cc3c(cc2C[C@H]1C(=O)N[C@@H](Cc1ccc(-c2ccc(C#N)cc2)cc1)C(=O)O)OC[C@H](c1ccc(OCc2ccc(Cl)c(Cl)c2)cc1)O3 [Example 141, (S)-2-({(3S,8S)-7-(6-Amino-2-methyl-pyridine-3-sulfonyl)-3-[4-(3,4-dichloro-benzyloxy)-phenyl]-2,3,6,7,8,9-hexahydro-[1,4]dioxino[2,3-g]isoquinoline-8-carbonyl}-amino)-3-(4′-cyano-biphenyl-4-yl)-propionic acid] | 315
3 | CC[C@@H](c1ccccc1)N1Cc2cc3c(cc2C[C@H]1C(=O)N[C@@H](Cc1ccc(-c2ccnc(C)c2C)cc1)C(=O)O)OC[C@H](c1ccc(OC)cc1)O3 [Example 161, (S)-3-[4-(2,3-Dimethyl-pyridin-4-yl)-phenyl]-2-{[(3S,8S)-3-(4-methoxy-phenyl)-7-((S)-1-phenyl-propyl)-2,3,6,7,8,9-hexahydro-[1,4]dioxino[2,3-g]isoquinoline-8-carbonyl]-amino}-propionic acid] | 117
4 | Cc1nccc(-c2ccc(C[C@H](NC(=O)[C@@H]3Cc4cc5c(cc4CN3C(=O)OC(C)(C)C)O[C@@H](c3ccc(OCc4ccc(Cl)c(Cl)c4)cc3)CO5)C(=O)O)cc2)c1C [Example 174, (3S,8S)-8-{(S)-1-Carboxy-2-[4-(2,3-dimethyl-pyridin-4-yl)-phenyl]-ethylcarbamoyl}-3-[4-(3,4-dichloro-benzyloxy)-phenyl]-2,3,8,9-tetrahydro-6H-[1,4]dioxino[2,3-g]isoquinoline-7-carboxylic acid tert-butyl ester] | 153
5 | CCC(C)(C)NC(=O)N1Cc2cc3c(cc2C[C@H]1C(=O)N[C@@H](Cc1ccc(Oc2ccnc(C)c2C)cc1)C(=O)O)OC[C@H](c1ccc(OCc2ccc(Cl)c(Cl)c2)cc1)O3 [Example 350, (S)-2-{[(3S,8S)-3-[4-(3,4-Dichloro-benzyloxy)-phenyl]-7-(1,1-dimethyl-propylcarbamoyl)-2,3,6,7,8,9-hexahydro-[1,4]dioxino[2,3-g]isoquinoline-8-carbonyl]-amino}-3-[4-(2,3-dimethyl-pyridin-4-yloxy)-phenyl]-propionic acid] | 212
6 | Cc1noc(C)c1S(=O)(=O)N1Cc2cc3c(cc2C[C@H]1C(=O)N[C@@H](Cc1ccc(-c2ccc(C#N)cc2)cc1)C(=O)O)OCC(c1ccc(OCc2ccc(Cl)c(Cl)c2)cc1)O3 (stereo in doubt) [Example 128, (S)-3-(4′-Cyano-biphenyl-4-yl)-2-{[(S)-3-[4-(3,4-dichloro-benzyloxy)-phenyl]-7-(3,5-dimethyl-isoxazole-4-sulfonyl)-2,3,6,7,8,9-hexahydro-[1,4]dioxino[2,3-g]isoquinoline-8-carbonyl]-amino}-propionic acid] | 178
7 | Cc1nccc(-c2ccc(C[C@H](NC(=O)[C@@H]3Cc4cc5c(cc4CN3Cc3nccs3)O[C@@H](c3ccc(OCc4ccc(Cl)c(Cl)c4)cc3)CO5)C(=O)O)cc2)c1C [Example 231, (S)-2-({(3S,8S)-3-[4-(3,4-Dichloro-benzyloxy)-phenyl]-7-thiazol-2-ylmethyl-2,3,6,7,8,9-hexahydro-[1,4]dioxino[2,3-g]isoquinoline-8-carbonyl}-amino)-3-[4-(2,3-dimethyl-pyridin-4-yl)-phenyl]-propionic acid] | 39
8 | Cc1nc(C(=O)N2Cc3cc4c(cc3C[C@H]2C(=O)N[C@@H](Cc2ccc(-c3ccnc(C)c3C)cc2)C(=O)O)OC[C@H](c2ccc(OCc3c(F)cccc3Cl)cc2)O4)c(C)o1 [Example 360, (S)-2-{[(3S,8S)-3-[4-(2-Chloro-6-fluoro-benzyloxy)-phenyl]-7-(2,5-dimethyl-oxazole-4-carbonyl)-2,3,6,7,8,9-hexahydro-[1,4]dioxino[2,3-g]isoquinoline-8-carbonyl]-amino}-3-[4-(2,3-dimethyl-pyridin-4-yl)phenyl]-propionic acid] | 297
9 | Cc1nc(N)sc1S(=O)(=O)N1Cc2cc3c(cc2C[C@H]1C(=O)N[C@@H](Cc1ccc(-c2ccc(C#N)cc2)cc1)C(=O)O)OC[C@H](c1ccc(OCc2ccc(Cl)c(Cl)c2)cc1)O3 [Example 81, (S)-2-({(3S,8S)-7-(2-Amino-4-methyl-thiazole-5-sulfonyl)-3-[4-(3,4-dichloro-benzyloxy)-phenyl]-2,3,6,7,8,9-hexahydro-[1,4]dioxino[2,3-g]isoquinoline-8-carbonyl}-amino)-3-(4′-cyano-biphenyl-4-yl)-propionic acid] | 326
10 | Cc1sc(N)nc1S(=O)(=O)N1Cc2cc3c(cc2C[C@H]1C(=O)N[C@@H](Cc1ccc(-c2ccc(C#N)cc2)cc1)C(=O)O)OCC(c1ccc(OCc2ccc(Cl)c(Cl)c2)cc1)O3 (stereo in doubt) [Example 95, (S)-2-({(S)-7-(2-Amino-5-methyl-thiazole-4-sulfonyl)-3-[4-(3,4-dichloro-benzyloxy)-phenyl]-2,3,6,7,8,9-hexahydro-[1,4]dioxino[2,3-g]isoquinoline-8-carbonyl}-amino)-3-(4′-cyano-biphenyl-4-yl)-propionic acid] | 462
11 | CCNc1ccc(S(=O)(=O)N2Cc3cc4c(cc3C[C@H]2C(=O)N[C@@H](Cc2ccc(-c3ccc(C#N)cc3)cc2)C(=O)O)OCC(c2ccc(OCc3ccc(Cl)c(Cl)c3)cc2)O4)c(C)n1 (stereo in doubt) [Example 135, (S)-3-(4′-Cyano-biphenyl-4-yl)-2-{[(S)-3-[4-(3,4-dichloro-benzyloxy)-phenyl]-7-(6-ethylamino-2-methyl-pyridine-3-sulfonyl)-2,3,6,7,8,9-hexahydro-[1,4]dioxino[2,3-g]isoquinoline-8-carbonyl]-amino}-propionic acid] | 284
12 | Cc1nc(C(=O)N2Cc3cc4c(cc3C[C@H]2C(=O)N[C@@H](Cc2ccc(-c3ccnc(C)c3C)cc2)C(=O)O)OC[C@H](c2ccc(OCCC(C)(C)C)cc2)O4)c(C)o1 [Example 380, (S)-2-{[(3S,8S)-3-[4-(3,3-dimethyl-butoxy)-phenyl]-7-(2,5-dimethyl-oxazole-4-carbonyl)-2,3,6,7,8,9-hexahydro-[1,4]dioxino[2,3-g]isoquinoline-8-carbonyl]-amino}-3-[4-(2,3-dimethyl-pyridin-4-yl)-phenyl]-propionic acid] | 213
13 | CCNc1nc(S(=O)(=O)N2Cc3cc4c(cc3C[C@H]2C(=O)N[C@@H](Cc2ccc(-c3ccc(C#N)cc3)cc2)C(=O)O)OCC(c2ccc(OCc3ccc(Cl)c(Cl)c3)cc2)O4)c(C)s1 (stereo in doubt) [Example 96, (S)-3-(4′-Cyano-biphenyl-4-yl)-2-{[(S)-3-[4-(3,4-dichloro-benzyloxy)-phenyl]-7-(2-ethylamino-5-methyl-thiazole-4-sulfonyl)-2,3,6,7,8,9-hexahydro-[1,4]dioxino[2,3-g]isoquinoline-8-carbonyl]-amino}-propionic acid] | 185
14 | CC(=O)N1Cc2cc3c(cc2C[C@H]1C(=O)N[C@@H](Cc1ccc(-c2ccnc(C)c2C)cc1)C(=O)O)OC[C@H](c1ccc(OCc2ccc(Cl)c(Cl)c2)cc1)O3 [Example 150, (S)-2-({(3S,8S)-7-Acetyl-3-[4-(3,4-dichloro-benzyloxy)-phenyl]-2,3,6,7,8,9-hexahydro-[1,4]dioxino[2,3-g]isoquinoline-8-carbonyl}-amino)-3-[4-(2,3-dimethyl-pyridin-4-yl)-phenyl]-propionic acid] | 372
15 | CC[C@@H](c1ccccc1)N1Cc2cc3c(cc2C[C@H]1C(=O)N[C@@H](Cc1ccc(-c2ccnc(O)c2)cc1)C(=O)O)OC[C@H](c1ccc(OCc2ccc(Cl)c(Cl)c2)cc1)O3 [Example 195, (S)-2-{[(3S,8S)-3-[4-(3,4-Dichloro-benzyloxy)-phenyl]-7-((S)-1-phenyl-propyl)-2,3,6,7,8,9-hexahydro-[1,4]dioxino[2,3-g]isoquinoline-8-carbonyl]-amino}-3-[4-(2-hydroxy-pyridin-4-yl)-phenyl]-propionic acid] | 138
16 | Cc1nc(C(=O)N2Cc3cc4c(cc3C[C@H]2C(=O)N[C@@H](Cc2ccc(-c3ccnc(C)c3C)cc2)C(=O)O)OC[C@H](c2ccc(OCc3cc(Cl)ccc3Cl)cc2)O4)c(C)o1 [Example 362, (S)-2-{[(3S,8S)-3-[4-(2,5-Dichloro-benzyloxy)-phenyl]-7-(2,5-dimethyl-oxazole-4-carbonyl)-2,3,6,7,8,9-hexahydro-[1,4]dioxino[2,3-g]isoquinoline-8-carbonyl]-amino}-3-[4-(2,3-dimethyl-pyridin-4-yl)-phenyl]-propionic acid] | 12
17 | Cc1nccc(-c2ccc(C[C@H](NC(=O)[C@@H]3Cc4cc5c(cc4CN3C(=O)N[C@H](C)c3ccccc3)O[C@@H](c3ccc(OCCc4ccc(Cl)c(Cl)c4)cc3)CO5)C(=O)O)cc2)c1C [Example 396, (S)-2-{[(3S,8S)-3-{4-[2-(3,4-Dichloro-phenyl)-ethoxy]-phenyl}-7-((R)-1-phenyl-ethylcarbamoyl)-2,3,6,7,8,9-hexahydro-[1,4]dioxino[2,3-g]isoquinoline-8-carbonyl]-amino}-3-[4-(2,3-dimethyl-pyridin-4-yl)-phenyl]-propionic acid] | 156
18 | Cc1nccc(-c2ccc(C[C@H](NC(=O)[C@@H]3Cc4cc5c(cc4CN3C(=O)N[C@H](C)c3ccccc3)O[C@@H](c3cccc(OCc4ccc(Cl)c(Cl)c4)c3)CO5)C(=O)O)cc2)c1C [Example 414, (S)-2-{[(3S,8S)-3-[3-(3,4-Dichloro-benzyloxy)-phenyl]-7-((R)-1-phenylethylcarbamoyl)-2,3,6,7,8,9-hexahydro-[1,4]dioxino[2,3-g]isoquinoline-8-carbonyl]-amino}-3-[4-(2,3-dimethyl-pyridin-4-yl)-phenyl]-propionic acid] | 191
